{"source": "ChEMBL document CHEMBL1158722", "about": "“Umbelactonyl cinnamate derivatives from Crypteronia paniculata that mediate DNA strand scission” (J Nat Prod, 2005)", "key": {"[1]": {"tested_on": "Escherichia coli", "test": "Induction of Cu2+-dependent DNA cleavage in pSP64 DNA assessed as form 2 DNA formation at 0.01 uM"}, "[2]": {"tested_on": "Escherichia coli", "test": "Induction of Cu2+-dependent DNA cleavage in pSP64 DNA assessed as form 3 DNA formation"}, "[3]": {"tested_on": "Escherichia coli", "test": "Induction of Cu2+-dependent DNA cleavage in pSP64 DNA assessed as form 2 DNA formation at 10 uM"}, "[4]": {"tested_on": "Escherichia coli", "test": "Induction of Cu2+-dependent DNA cleavage in pSP64 DNA assessed as form 2 DNA formation at 5 uM"}, "[5]": {"tested_on": "Escherichia coli", "test": "Induction of Cu2+-dependent DNA cleavage in pSP64 DNA assessed as form 2 DNA formation at 1 uM"}, "[6]": {"tested_on": "Escherichia coli", "test": "Induction of Cu2+-dependent DNA cleavage in pSP64 DNA assessed as form 2 DNA formation at 0.1 uM"}}, "note": "Calls of active or inactive are those of the source. The rule behind the calls is not given here."}
{"smiles": "CC1=CC(=O)O[C@H]1COC(=O)/C=C/c1ccc(O)c(O)c1", "values": [{"measurement": "Activity", "setting": "[1]", "result": 16, "unit": "%"}, {"measurement": "Activity", "setting": "[2]", "result": "inactive"}, {"measurement": "Activity", "setting": "[3]", "result": 92, "unit": "%"}, {"measurement": "Activity", "setting": "[4]", "result": 88, "unit": "%"}, {"measurement": "Activity", "setting": "[5]", "result": 68, "unit": "%"}, {"measurement": "Activity", "setting": "[6]", "result": 32, "unit": "%"}]}
